{"source": "paper PMC7551591", "about": "“The Effect of Resveratrol or Curcumin on Head and Neck Cancer Cells Sensitivity to the Cytotoxic Effects of Cisplatin” (Nutrients, 2020)", "assay_type_in_all_cases": "cell-based, human", "key": {"PE/CA-PJ49 tumor cells [1]": {"tested_on": "PE/CA-PJ49 tumor cells", "assay": "MTT drug sensitivity (viability) assay, tumor cells", "details": "24 h; for IC50: Homo sapiens; for IC50 / IC 25: MTT; for Selectivity Index (SI): IC50 in HUVEC / IC50 in PE/CA-PJ49", "description": "(§1) The MTT assay is based on the ability of viable cells to reduce the reagent 3-(4,5-dimethylthiazol-2-yl)-2,5-diphenyltetrazolium bromide to colored formazan compounds [48]. Because the transformation is only possible in viable cells, the amount of blue formazan is proportional to the number of viable cells and thus, a linear dependence exists between cell activity and absorbance. Cells were seeded in triplicate in 96-well plates at a density of 5000 cells/well, incubated at 37 °C for 24 h. […] After the incubation period, 20 μL MTT (5 mg/mL in PBS) was added and further incubated for 4 h. The supernatant was removed, and the formazan product was analyzed spectrophotometrically (570 nm) after dissolution in DMSO. Wells without cells serve as a blank, and their absorbance was subtracted from the other results. Untreated cells were used as control and their viability was assumed as 100%. Results were expressed as mean values of three determinations ± standard deviation (SD). Data are presented as percent of cell viability and compared to untreated [Viability% = (T − B)/(U − B) × 100, {where T = absorbance of treated cells; U = absorbance of untreated cells, B = absorbance of blank}]. Once percent viability was obtained, the drug response curve was generated, and inhibitory concentration (IC50 and IC25) was calculated using GraphPad Prism version 5.01 [49].\n(§2) SI values of more than 2 were considered as indicative of high selectivity.\n(§3) The anticancer cytotoxic activity in vitro was evaluated by the MTT assay. […] The most widely used and informative measure of a drug’s efficacy is IC50-the half-maximal inhibitory concentration. IC50 was determined at half of the difference between the maximum (plateau) and minimum absorbance values, by plotting the absorbance value at 570 nm (Y axis) versus the concentration of the compound analysed (X axis). The IC50 values were reported as a mean of three independent experiments ± standard deviation (S.D.)."}, "HUVEC normal cells [2]": {"tested_on": "HUVEC normal cells", "assay": "MTT drug sensitivity (viability) assay, normal cells", "details": "24 h; for IC 25 / IC50: MTT; for IC50: Homo sapiens", "description": "as §1, §2, §3"}, "[3]": {"tested_on": "p21 protein (CIP1/CDKN1A) expression in HUVEC", "assay": "Total p21 protein ELISA in cell lysates, normal cells", "details": "24 h; for n-fold p21 Protein Expression HUVEC: vs control", "description": "After incubation, cells were washed twice with ice-cold PBS, scraped, pelleted and lysed in RIPA buffer (Pierce) supplemented with protease inhibitor cocktail (Roche) and phosphatase inhibitor (Roche) for 30 min on ice. The lysates were transfered into microcentrifuge tubes and centrifuged at 14,000× g for 5 min at 4 °C followed by sonication (10–15 s × 3). The supernatants were collected into clean microcentrifuge tubes and stored at −80 °C. Lysates protein concentration were quantified by BCA protein assay kit (Thermo Scientific) and aliquots of 50 μg of total cell lysate were used for ELISA assay.\nDuoSetR IC ELISA-Human Total p21/CIP1/CDKN1A(: DYC1047-2) was purchased from R&D Systems Inc. and contains the basic components required for the development of sandwich ELISAs to measure human p21 protein also known as CIP1 and CDKN1A in cell lysates. An immobilized capture antibody specifically binds human p21. After washing away unbound material, a biotinylated detection antibody specific for human p21 is used to detect the captured protein, utilizing a standard Streptavidin-HRP format. All experiments were performed in triplicates and absorbance was measured at λ = 450 nm using a Dynex plate reader.\nIn cancer development and evolution p21 protein might acts as an oncogene or tumor suppressor and for this reason it could be an important player in processes such as the cancer aggressiveness or the response to chemotherapy. In this study, using ELISA assay we analyzed the expression level of p21 in the tumor cells (PE-CA/PJ49) compared to a normal cells (HUVEC)."}, "[4]": {"assay": "Annexin V-FITC/PI apoptosis flow cytometry, normal cells", "details": "human, HUVEC normal cells, read-out: Q3 (viable cells, FITC−PI−)", "description": "(§4) The apoptosis assay was carried out with the Annexin V-FITC kit using the manufacturer’s (BD Pharmingen) protocol. Treated and untreated 1 × 10^6 cells/mL were resuspended in cold binding buffer and staining simultaneously with 5 μL FITC-Annexin V (green fluorescence) and 5 μL propidium iodide (PI) in the dark, at room temperature for 15 min. Then, 400μL of Annexin V binding buffer was added and 10,000 cells/sample were acquired using a BD Canto II flow cytometer. The analysis was performed using DIVA 6.2 software in order to discriminate viable cells (FITC^−PI^−) from necrotic cells […] and early apoptosis (FITC^+PI^−) from late apoptosis.\n(§5) Apoptosis can be seen as an efficient method of preventing malignant transformation, as it ensures the removal of cells which present with genetic alterations. Deficient apoptosis can promote the development of cancer, both through the accumulation of cells found during division and the blocking of the removal of cells with high malignant potential genetic variations. The factors which determine the cells to follow one of three possible pathways are not yet known – the start of apoptosis after cellular injury, the repair of the lesion or the continuation of the cellular cycle. Many therapeutical agents have anti-tumoral effects generated by their capacity to activate the apoptotic process. […] The flow cytometric analysis was performed using DIVA 6.2 software and allowed to discriminate viable cells (FITC^−PI^− = Q3) from necrotic cells (FITC^−PI^+ = Q1) and early apoptosis (FITC^+PI^− = Q4) from late apoptosis (FITC^+PI^+ = Q2)."}, "HUVEC normal cells [5]": {"tested_on": "HUVEC normal cells", "assay": "Annexin V-FITC/PI apoptosis flow cytometry, normal cells", "details": "24 h; for Apoptoza Tarzie = Q2 (%): late apoptosis; for Apoptoza Totală = Q2+Q4 (%): total apoptosis", "description": "as §4, §5"}, "PE/CA-PJ49 tumor cells [6]": {"tested_on": "PE/CA-PJ49 tumor cells", "assay": "MTS cell proliferation assay (CellTiter 96), tumor cells", "details": "24 h, PE/CA-PJ49 vs HUVEC", "text": "In order to determine the effect of CRM or RSV on proliferative activity of cisplatin treated cells was used the Promega CellTiter 96® AQueous One Solution Cell Proliferation Assay, a test that is based on the reduction of yellow MTS tetrazolium salt by the viable cells and generation of colored formazan soluble in the culture medium. The product was spectrophotometrically quantified by measuring the absorbance at λ = 490 nm using a Dynex plate reader (DYNEX Technologies-MRS, Chantilly, VA, USA). Results were expressed as mean values of three determinations ± standard deviation (SD). Untreated cells served as control and considered to have a proliferation index (PI = absorbance of treated cells/absorbance of untreated cells) equal to 1."}}}
{"molecule": "COc1cc(/C=C/C(=O)CC(=O)/C=C/c2ccc(O)c(OC)c2)ccc1O", "note": "[CRM, Curcumin]", "values": [{"measurement": "cell viability (MTT)", "setting": "PE/CA-PJ49 tumor cells [1]; 15 μM CRM, PE/CA-PJ49 vs HUVEC", "result": "reduced tumor cell viability compared to normal cells HUVEC"}, {"measurement": "IC50", "setting": "PE/CA-PJ49 tumor cells [1]; PE/CA-PJ49", "result": "16.3 ± 3.4", "unit": "µM"}, {"measurement": "Selectivity Index (SI)", "setting": "PE/CA-PJ49 tumor cells [1]", "result": 3.66}, {"measurement": "IC 25", "setting": "PE/CA-PJ49 tumor cells [1]; PE/CA-PJ49", "result": "7.9 ± 1.8", "unit": "µM"}, {"measurement": "IC 25", "setting": "HUVEC normal cells [2]", "result": "19.2 ± 2.1", "unit": "µM"}, {"measurement": "IC50", "setting": "HUVEC normal cells [2]", "result": "59.3 ± 6.1", "unit": "µM"}, {"measurement": "p21 pg/mL HUVEC", "setting": "[3]; 15 μM CRM", "result": 221, "unit": "pg/mL"}, {"measurement": "n-fold p21 Protein Expression HUVEC", "setting": "[3]; 15 μM CRM", "result": 1.21}, {"measurement": "viability at 24 h, 15 μM", "setting": "[4]; 15 μM CRM", "result": 90.2, "unit": "%"}, {"measurement": "Early Apoptosis = Q4 (%)", "setting": "HUVEC normal cells [5]; 15 μM CRM", "result": 6.7, "unit": "%"}, {"measurement": "Necrosis = Q1 (%)", "setting": "HUVEC normal cells [5]; 15 μM CRM", "result": 2.6, "unit": "%"}, {"measurement": "Apoptoza Tarzie = Q2 (%)", "setting": "HUVEC normal cells [5]; 15 μM CRM", "result": 0.5, "unit": "%"}, {"measurement": "Apoptoza Totală = Q2+Q4 (%)", "setting": "HUVEC normal cells [5]; 15 μM CRM", "result": 7.2, "unit": "%"}, {"measurement": "proliferative process (IP)", "setting": "PE/CA-PJ49 tumor cells [6]; 15 μM CRM", "result": "much more intense decrease of the proliferative process"}]}
{"molecule": "Oc1ccc(C=Cc2cc(O)cc(O)c2)cc1", "note": "[RSV, 3,5,4′-trihydroxystilbene]", "values": [{"measurement": "IC50", "setting": "PE/CA-PJ49 tumor cells [1]; PE/CA-PJ49", "result": "46.8 ± 2.6", "unit": "µM"}, {"measurement": "Selectivity Index (SI)", "setting": "PE/CA-PJ49 tumor cells [1]", "result": 2.36}, {"measurement": "IC 25", "setting": "PE/CA-PJ49 tumor cells [1]; PE/CA-PJ49", "result": "17.6 ± 1.5", "unit": "µM"}, {"measurement": "cell viability (MTT)", "setting": "PE/CA-PJ49 tumor cells [1]; PE/CA-PJ49, RSV 40 μM vs untreated cells", "result": "significantly affected"}, {"measurement": "IC 25", "setting": "HUVEC normal cells [2]", "result": "40.6 ± 3.3", "unit": "µM"}, {"measurement": "cell viability (MTT)", "setting": "HUVEC normal cells [2]; RSV 40 μM vs untreated cells", "result": "significantly affected"}, {"measurement": "IC50", "setting": "HUVEC normal cells [2]", "result": "110 ± 8.6", "unit": "µM"}, {"measurement": "p21 pg/mL HUVEC", "setting": "[3]; 40 μM RSV", "result": 148, "unit": "pg/mL"}, {"measurement": "n-fold p21 Protein Expression HUVEC", "setting": "[3]; 40 μM RSV", "result": 0.81}, {"measurement": "viability at 24 h, 40 μM", "setting": "[4]; 40 μM RSV", "result": 93.7, "unit": "%"}, {"measurement": "Early Apoptosis = Q4 (%)", "setting": "HUVEC normal cells [5]; 40 μM RSV", "result": 4.8, "unit": "%"}, {"measurement": "Necrosis = Q1 (%)", "setting": "HUVEC normal cells [5]; 40 μM RSV", "result": 1.2, "unit": "%"}, {"measurement": "Apoptoza Tarzie = Q2 (%)", "setting": "HUVEC normal cells [5]; 40 μM RSV", "result": 0.3, "unit": "%"}, {"measurement": "Apoptoza Totală = Q2+Q4 (%)", "setting": "HUVEC normal cells [5]; 40 μM RSV", "result": 5.1, "unit": "%"}, {"measurement": "proliferation (index proliferation, IP)", "setting": "PE/CA-PJ49 tumor cells [6]; 40 μM RSV", "result": "affected the proliferation of tumor cells PE/CA-PJ49 much more than the one of normal cells HUVEC"}]}
